Earlier results in patent US7939308B2, “Bio-based method for making mannitol” (The United States of America as represented by the …, priority 2002, dated 2011).
In brackets after ≈: the same amount, converted by molar mass.

Details: at 25° C.

## OC[C@@H](O)[C@@H](O)[C@H](O)[C@H](O)CO [mannitol, Mannitol]
  solubility limit: 180 mg/mL (≈ 988 mM)
